The data set can be described thus: Visual examination of dissolution of phospholipid and cholesterol in sucrose solution containing t-BuOH during cooling from 80° C. To be noted: cooled from 80° C. Format: physicochemical. As to the method:
[…] […] The solution was in the white opaque state at 80° C. Next, the temperature control of the water bath was off while still stirred, so that the solution was slowly cooled down at room temperature. It took about 90 min for the temperature of the water bath to be cooled from 80° C. to 35° C. The solution, which was in the white opaque state at 80° C., turned into a slightly pale transparent state around at 72° C., and the transparency persisted until the temperature fell to around 62° C. From around 62° C., the solution started to become white opaque again, turning into a completely white opaque state at 58° C. This change of state was reversible: the similar change of state was observed when the temperature was gradually raised from room temperature.
This state persisted until the temperature fell down to about 35° C., where the solution suddenly changed into a white opaque state.

[1] abbreviates: 200 mg cholesterol with 380 mg DPPC in 20 mL 10 wt/vol % sucrose solution + 4.25 mL t-BuOH.

SMILES strings stand for the structures.

The source of these data is US20110250262A1, “METHOD FOR PRODUCING LIPOSOME AND METHOD FOR DISSOLVING CHOLESTEROL” (BIOMEDCORE, INC., priority 2008, published 2011).

With `CCCCCCCCCCCCCCCC(=O)OC[C@H](COP(=O)([O-])OCC[N+](C)(C)C)OC(=O)CCCCCCCCCCCCCCC` [DPPC, L-α-dipalmitoylphosphatidylcholine], the “State of the aqueous solution (dissolution), DPPC alone” value (75.9 mg DPPC alone in 4 mL 10 wt/vol % sucrose solution + 0.85 mL t-BuOH) was “transparent state between 80 °C and 50 °C”.

Consider `CC(C)CCC[C@@H](C)[C@H]1CC[C@H]2[C@@H]3CC=C4C[C@@H](O)CC[C@]4(C)[C@H]3CC[C@]12C` [cholesterol, Cholesterol], for which the “State of the aqueous solution (dissolution), cholesterol alone” value (40 mg cholesterol alone in 4 mL 10 wt/vol % sucrose solution + 0.85 mL t-BuOH) is “the solution never became transparent at any temperature”. Further, under setting [1], the “Lower temperature of the transparent (dissolved) state of the solution” value was “around 62 °C” and the “Upper temperature of the transparent (dissolved) state of the solution” value is ~72 °C.
